# Test results published in PubChem BioAssay (NCI).
#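 Test compounds were applied to cells in 96-well plates for 48 hours at 5 doses. TGI marks complete inhibition of growth.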
# Columns and labels:
# Test in all cases: DTP human tumour cell line panel, 48 h
# MCF7 breast = tested on: MCF7 breast
# SF-268 CNS = tested on: SF-268 CNS
# TK-10 renal = tested on: TK-10 renal
# NCI-H460 lung = tested on: NCI-H460 lung
# DU-145 prostate = tested on: DU-145 prostate
# MDA-MB-231 breast = tested on: MDA-MB-231 breast
# PC-3 prostate = tested on: PC-3 prostate
# RPMI-8226 leukemia = tested on: RPMI-8226 leukemia
# SNB-75 CNS = tested on: SNB-75 CNS
# T-47D breast = tested on: T-47D breast
# SK-MEL-5 melanoma = tested on: SK-MEL-5 melanoma
# SK-OV-3 ovarian = tested on: SK-OV-3 ovarian
# SN12C renal = tested on: SN12C renal
# SK-MEL-2 melanoma = tested on: SK-MEL-2 melanoma
# NCI-H23 lung = tested on: NCI-H23 lung
# MDA-N = tested on: MDA-N
# IGROV1 ovarian = tested on: IGROV1 ovarian
# SNB-19 CNS = tested on: SNB-19 CNS
# SF-539 CNS = tested on: SF-539 CNS
# CAKI-1 renal = tested on: CAKI-1 renal
# HCC-2998 colon = tested on: HCC-2998 colon
# HCT-15 colon = tested on: HCT-15 colon
# SF-295 CNS = tested on: SF-295 CNS
# COLO 205 colon = tested on: COLO 205 colon
# BT-549 breast = tested on: BT-549 breast
# UO-31 renal = tested on: UO-31 renal
# M14 melanoma = tested on: M14 melanoma
# MALME-3M melanoma = tested on: MALME-3M melanoma
# A549 NSCLC = tested on: A549 NSCLC
# EKVX NSCLC = tested on: EKVX NSCLC
# OVCAR-4 ovarian = tested on: OVCAR-4 ovarian
# HCT-116 colon = tested on: HCT-116 colon
# OVCAR-8 ovarian = tested on: OVCAR-8 ovarian
# LOX IMVI melanoma = tested on: LOX IMVI melanoma
# UACC-257 melanoma = tested on: UACC-257 melanoma
# RXF 393 renal = tested on: RXF 393 renal
# UACC-62 melanoma = tested on: UACC-62 melanoma
# NCI-H226 lung = tested on: NCI-H226 lung
# CCRF-CEM leukemia = tested on: CCRF-CEM leukemia
# U251 CNS = tested on: U251 CNS
# NCI-H522 lung = tested on: NCI-H522 lung
# OVCAR-5 ovarian = tested on: OVCAR-5 ovarian
# HT29 colon = tested on: HT29 colon
# 786-0 renal = tested on: 786-0 renal
# ACHN renal = tested on: ACHN renal
# HOP-62 NSCLC = tested on: HOP-62 NSCLC
# MDA-MB-435 = tested on: MDA-MB-435
# HS 578T breast = tested on: HS 578T breast
# SK-MEL-28 melanoma = tested on: SK-MEL-28 melanoma
# SW-620 colon = tested on: SW-620 colon
# K-562 leukemia = tested on: K-562 leukemia
# OVCAR-3 ovarian = tested on: OVCAR-3 ovarian
# KM12 colon = tested on: KM12 colon
# NCI/ADR-RES ovarian = tested on: NCI/ADR-RES ovarian
# HL-60(TB) leukemia = tested on: HL-60(TB) leukemia
# HOP-92 NSCLC = tested on: HOP-92 NSCLC
# MOLT-4 leukemia = tested on: MOLT-4 leukemia
# A498 renal = tested on: A498 renal
# SR leukemia = tested on: SR leukemia
smiles,measurement,setting,value
O=C1OC(=O)c2cc(S(=O)(=O)c3ccc4c(c3)C(=O)OC4=O)ccc21,TGI,MCF7 breast,> 100 µM
same,TGI,SF-268 CNS,> 100 µM
same,TGI,TK-10 renal,> 100 µM
same,TGI,NCI-H460 lung,> 100 µM
same,TGI,DU-145 prostate,> 100 µM
same,TGI,MDA-MB-231 breast,> 100 µM
same,TGI,PC-3 prostate,> 100 µM
same,TGI,RPMI-8226 leukemia,> 100 µM
same,TGI,SNB-75 CNS,> 100 µM
same,TGI,T-47D breast,> 100 µM
same,TGI,SK-MEL-5 melanoma,> 100 µM
same,TGI,SK-OV-3 ovarian,> 100 µM
same,TGI,SN12C renal,> 100 µM
same,TGI,SK-MEL-2 melanoma,> 100 µM
same,TGI,NCI-H23 lung,> 100 µM
same,TGI,MDA-N,> 100 µM
same,TGI,IGROV1 ovarian,> 100 µM
same,TGI,SNB-19 CNS,> 100 µM
same,TGI,SF-539 CNS,> 100 µM
same,TGI,CAKI-1 renal,> 100 µM
same,TGI,HCC-2998 colon,> 100 µM
same,TGI,HCT-15 colon,> 100 µM
same,TGI,SF-295 CNS,> 100 µM
same,TGI,COLO 205 colon,> 100 µM
same,TGI,BT-549 breast,> 100 µM
same,TGI,UO-31 renal,> 100 µM
same,TGI,M14 melanoma,> 100 µM
same,TGI,MALME-3M melanoma,> 100 µM
same,TGI,A549 NSCLC,> 100 µM
same,TGI,EKVX NSCLC,> 100 µM
same,TGI,OVCAR-4 ovarian,> 100 µM
same,TGI,HCT-116 colon,> 100 µM
same,TGI,OVCAR-8 ovarian,> 100 µM
same,TGI,LOX IMVI melanoma,> 100 µM
same,TGI,UACC-257 melanoma,> 100 µM
same,TGI,RXF 393 renal,> 100 µM
same,TGI,UACC-62 melanoma,> 100 µM
same,TGI,NCI-H226 lung,> 100 µM
same,TGI,CCRF-CEM leukemia,> 100 µM
same,TGI,U251 CNS,> 100 µM
same,TGI,NCI-H522 lung,> 100 µM
same,TGI,OVCAR-5 ovarian,> 100 µM
same,TGI,HT29 colon,> 100 µM
same,TGI,786-0 renal,> 100 µM
same,TGI,ACHN renal,> 100 µM
same,TGI,HOP-62 NSCLC,> 100 µM
same,TGI,MDA-MB-435,> 100 µM
same,TGI,HS 578T breast,> 100 µM
same,TGI,SK-MEL-28 melanoma,> 100 µM
same,TGI,SW-620 colon,> 100 µM
same,TGI,K-562 leukemia,> 100 µM
same,TGI,OVCAR-3 ovarian,> 100 µM
same,TGI,KM12 colon,> 100 µM
same,TGI,NCI/ADR-RES ovarian,> 100 µM
CC(=O)OCC1OC(Oc2cc(C)c(O)cc2C/C=C(\C)CC/C=C(\C)CC(=O)CC(C)C)C(O)C(OC(C)=O)C1OC(C)=O (stereo not drawn),TGI,MCF7 breast,43.8 µM
same,TGI,SF-268 CNS,> 50 µM
same,TGI,TK-10 renal,41.1 µM
same,TGI,NCI-H460 lung,40 µM
same,TGI,DU-145 prostate,> 50 µM
same,TGI,MDA-MB-231 breast,31.1 µM
same,TGI,PC-3 prostate,> 50 µM
same,TGI,HL-60(TB) leukemia,23.4 µM
same,TGI,RPMI-8226 leukemia,21.4 µM
same,TGI,SNB-75 CNS,> 50 µM
same,TGI,T-47D breast,27.3 µM
same,TGI,SK-MEL-5 melanoma,14.9 µM
same,TGI,SK-OV-3 ovarian,> 50 µM
same,TGI,SN12C renal,40.3 µM
same,TGI,SK-MEL-2 melanoma,26.6 µM
same,TGI,NCI-H23 lung,18.8 µM
same,TGI,MDA-N,> 50 µM
same,TGI,IGROV1 ovarian,> 50 µM
same,TGI,SNB-19 CNS,> 50 µM
same,TGI,HOP-92 NSCLC,> 50 µM
same,TGI,CAKI-1 renal,> 50 µM
same,TGI,HCC-2998 colon,24.5 µM
same,TGI,HCT-15 colon,> 50 µM
same,TGI,SF-295 CNS,> 50 µM
same,TGI,COLO 205 colon,17.3 µM
same,TGI,BT-549 breast,31.2 µM
same,TGI,UO-31 renal,32 µM
same,TGI,M14 melanoma,25.7 µM
same,TGI,MALME-3M melanoma,> 50 µM
same,TGI,A549 NSCLC,20.3 µM
same,TGI,EKVX NSCLC,16.3 µM
same,TGI,OVCAR-4 ovarian,> 50 µM
same,TGI,HCT-116 colon,> 50 µM
same,TGI,OVCAR-8 ovarian,> 50 µM
same,TGI,MOLT-4 leukemia,19.5 µM
same,TGI,LOX IMVI melanoma,32.7 µM
same,TGI,UACC-257 melanoma,31.7 µM
same,TGI,RXF 393 renal,22.6 µM
same,TGI,UACC-62 melanoma,39.1 µM
same,TGI,CCRF-CEM leukemia,22.3 µM
same,TGI,U251 CNS,41.9 µM
same,TGI,NCI-H522 lung,> 50 µM
same,TGI,OVCAR-5 ovarian,> 50 µM
same,TGI,HT29 colon,12.5 µM
same,TGI,786-0 renal,> 50 µM
same,TGI,ACHN renal,44.9 µM
same,TGI,A498 renal,27.6 µM
same,TGI,HOP-62 NSCLC,40 µM
same,TGI,MDA-MB-435,48.4 µM
same,TGI,HS 578T breast,35.2 µM
same,TGI,SK-MEL-28 melanoma,> 50 µM
same,TGI,SW-620 colon,24.6 µM
same,TGI,K-562 leukemia,23.2 µM
same,TGI,OVCAR-3 ovarian,30 µM
same,TGI,KM12 colon,29.4 µM
same,TGI,NCI/ADR-RES ovarian,31.9 µM
CC1=Nc2sc3c(c2C2=NCCN12)CCCC3,TGI,MCF7 breast,48.1 µM
same,TGI,SF-268 CNS,> 100 µM
same,TGI,TK-10 renal,> 100 µM
same,TGI,NCI-H460 lung,39 µM
same,TGI,DU-145 prostate,> 100 µM
same,TGI,MDA-MB-231 breast,71.2 µM
same,TGI,PC-3 prostate,65.9 µM
same,TGI,HL-60(TB) leukemia,61 µM
same,TGI,RPMI-8226 leukemia,46.9 µM
same,TGI,SNB-75 CNS,> 100 µM
same,TGI,T-47D breast,88 µM
same,TGI,SK-MEL-5 melanoma,77.4 µM
same,TGI,SN12C renal,69.6 µM
same,TGI,SK-MEL-2 melanoma,84.5 µM
same,TGI,NCI-H23 lung,46.3 µM
same,TGI,MDA-N,44.2 µM
same,TGI,IGROV1 ovarian,60.7 µM
same,TGI,SNB-19 CNS,> 100 µM
same,TGI,CAKI-1 renal,50.6 µM
same,TGI,HCC-2998 colon,> 100 µM
same,TGI,HCT-15 colon,> 100 µM
same,TGI,SF-295 CNS,98.7 µM
same,TGI,COLO 205 colon,79.1 µM
same,TGI,BT-549 breast,43.4 µM
same,TGI,UO-31 renal,50.5 µM
same,TGI,MALME-3M melanoma,71.3 µM
same,TGI,EKVX NSCLC,94.1 µM
same,TGI,SR leukemia,65.2 µM
same,TGI,OVCAR-4 ovarian,> 100 µM
same,TGI,HCT-116 colon,44.7 µM
same,TGI,OVCAR-8 ovarian,50.6 µM
same,TGI,MOLT-4 leukemia,60.5 µM
same,TGI,LOX IMVI melanoma,36.8 µM
same,TGI,UACC-257 melanoma,48.5 µM
same,TGI,RXF 393 renal,61 µM
same,TGI,UACC-62 melanoma,32 µM
same,TGI,NCI-H226 lung,31.2 µM
same,TGI,U251 CNS,70.7 µM
same,TGI,NCI-H522 lung,41 µM
same,TGI,OVCAR-5 ovarian,92 µM
same,TGI,HT29 colon,36.5 µM
same,TGI,786-0 renal,46 µM
same,TGI,ACHN renal,69.9 µM
same,TGI,A498 renal,90.6 µM
same,TGI,HOP-62 NSCLC,> 100 µM
same,TGI,MDA-MB-435,91.6 µM
same,TGI,HS 578T breast,91.1 µM
same,TGI,SK-MEL-28 melanoma,65.4 µM
same,TGI,SW-620 colon,52.9 µM
same,TGI,K-562 leukemia,> 100 µM
same,TGI,OVCAR-3 ovarian,66.8 µM
same,TGI,KM12 colon,> 100 µM
same,TGI,NCI/ADR-RES ovarian,54.4 µM
